The melting point is the temperature, or range, at which the solid turns liquid. What is called EC50 is the concentration at which the effect is half-maximal. What is called Emax is the size of the effect at its maximum, as opposed to the concentration needed.

Read-outs that look alike come from different tables or passages of the source.

For one series, the target named is T1, human 5-HT2C receptor (Homo sapiens, UniProt P28335).
T1 construct: expressed in transfected cells
T1 sequence (P28335 33-458): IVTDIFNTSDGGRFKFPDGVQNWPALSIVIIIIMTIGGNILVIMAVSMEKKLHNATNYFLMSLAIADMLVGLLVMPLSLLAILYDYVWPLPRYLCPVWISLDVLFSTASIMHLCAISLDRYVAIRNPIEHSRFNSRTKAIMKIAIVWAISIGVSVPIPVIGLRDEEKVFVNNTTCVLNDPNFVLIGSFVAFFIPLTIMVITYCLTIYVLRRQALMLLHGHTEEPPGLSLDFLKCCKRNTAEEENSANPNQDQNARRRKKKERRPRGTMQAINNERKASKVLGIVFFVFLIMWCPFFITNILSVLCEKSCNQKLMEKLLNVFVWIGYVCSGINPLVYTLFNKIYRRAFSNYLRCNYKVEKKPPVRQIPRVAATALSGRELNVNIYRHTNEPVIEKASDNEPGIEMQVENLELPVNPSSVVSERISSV
As to the kind of experiment: Evaluation of 5-HT2C receptor agonist activity (intracellular calcium increase, FLIPR, CHO cells stably expressing the receptor). Format: cell-based. To be noted: for Emax: read-out: 5-HT2C agonist activity Emax. Here is the method: The agonist activity of the compound of the formula (I) on the 5-HT2C receptor was confirmed by the method shown below.
The human 5-HT2C receptor agonist activity was evaluated by measuring the increase of the ligand-dependent intracellular calcium concentration. CHO cells which stably expressing a human 5-HT2C receptor were used. The receptor-expressing cells were prepared by transfecting the genes of the human 5-HT2C receptor (Accession numbers: AF498983 (5-HT2C)) into CHO cells (dihydrofolic acid-deficient strain, DS Pharma Biomedical Co., Ltd.)) using a pEF-BOS vector (Nucleic Acids Research, vol. 18, No. 17). After transcription, the 5-HT2C is known to be subjected to RNA editing to cause differences in three kinds of amino acids, resulting in fourteen receptor isoforms. Among them, cells stably expressing an INI type of 5-HT2C receptor which had not been subjected to editing were used. Cells used for evaluation were cultured in a 10% fetal bovine serum (FBS)-containing medium (trade name: α-MEM, Invitrogen) at 37° C. and 5% carbon dioxide. On the day before the evaluation, the cells were suspended in a serum-free medium (trade name: CD-CHO, Invitrogen) containing 8 mM L-glutamine (trade name: L-glutamine 200 mM, Invitrogen, added to the medium at a final concentration of 8 mM) and dispensed into a 96-well poly-D-lysine-coated plate (trade name: Biocoat PDL96W Black/Clear, Japan Becton, Dickinson and Company)) at 4×10^4 cells/well and cultured at 37° C. and 5% carbon dioxide overnight. A solution including a washing solution (mixture of Hank's Balanced Salt Solution (HBSS)-sodium hydroxide (NaOH), 20 mM 2-[4-(2-hydroxyethyl)-1-piperazinyl]ethanesulfonic acid (HEPES)-sodium hydroxide (NaOH), 2.5 mM probenecid, and 0.1% bovine serum albumin (BSA)), and a 4 μM fluorescent reagent (trade name: Fluo4-AM, Dojindo Co., Ltd.) was used as a loading buffer and the medium of the 96-well plate which had been cultured overnight was replaced with a loading buffer. After leaving to stand (with light-shielding) at room temperature for 3 hours, the cells were washed with a plate washer (trade name: ELx405, BioTek Instruments, Inc.) in which a washing solution had been set up. The plates of the washed cells were set up in a system for measuring a calcium (Ca) concentration in a cell (trade name: FLIPR, Molecular Devices, Inc.). In this device, a test compound that had been dissolved in dimethyl sulfoxide and diluted in the washing solution at a predetermined concentration was added and set up to measure a change in the Ca concentrations in a cell. The difference between a maximum value and a minimum value in the change of the intracellular Ca concentration was determined and kept as measurement data.
Taking the maximum reaction of the 5-HT (agonist action with addition of 5-HT 10 μM) as 100% and the reaction of a solvent alone as 0%, the efficacy (Emax (%)) and potency (EC50 (nM)) of the present invention compound to the maximum reaction of the 5-HT were calculated with a logistic regression method.

[1] abbreviates: CHO cells stably expressing INI type human 5-HT2C receptor, intracellular Ca increase, logistic regression, read-out: 5-HT2C agonist activity EC50.
[2] abbreviates: maximum reaction of 5-HT (10 μM) taken as 100%, solvent alone as 0%, CHO cells expressing INI type human 5-HT2C receptor.

Compound `CCCN1C(=O)CCc2cc3c(cc21)CCNCC3.Cl` returned a melting point of 125 to 129 °C. The same measure, in the same setting: under `O=C(O)CCC(=O)O.O=C1COc2cc3c(cc2N1Cc1ccccc1Cl)CCNCC3` stands 119 to 127 °C; under `O=C(O)CCC(=O)O.O=C(OCCc1ccccc1F)N1CCOc2cc3c(cc21)CCNCC3`, 186 to 187 °C. For the compound `Cl.FC(F)(F)CN1CCOc2cc3c(cc21)CCNCC3`, the melting point lay in the range of 221 to 222 °C. Consider `CCOC(=O)N1CCOc2c1cc1c(c2Cl)CCNCC1.O=C(O)CCC(=O)O`, for which the melting point is 145 to 147 °C. Same read-out and setting: under `Clc1ccccc1CN1CCOc2cc3c(c(C4CC4)c21)CCNCC3.O=C(O)CCC(=O)O` stands 106 to 109 °C; under `CC1(C)CCc2cc3c(cc2N1)CCNCC3`, 270 to 273 °C.

Take `COCC(CN1CCOc2cc3c(c(C4CC4)c21)CCNCC3)Oc1ccc(F)cc1F.O=C(O)/C=C/C(=O)O` (stereo not shown): the melting point lay within 150 to 151 °C.

The compound `CCNC(=O)N1CCCc2cc3c(cc21)CCNCC3.O=C(O)/C=C/C(=O)O` gave a melting point of 174 to 176 °C. `O=C1CCc2cc3c(c(Cl)c2N1)CCNCC3` [Example 1, 11-chloro-1,3,4,6,7,8,9,10-octahydro-2H-azepino[4,5-g]quinolin-2-one] returned a melting point of 165 to 167 °C. Take `CC(C)CN1CCCc2cc3c(c(Cl)c21)CCNCC3.O=C(O)/C=C/C(=O)O` [Example 2, 11-chloro-1-isobutyl-2,3,4,6,7,8,9,10-octahydro-1H-azepino[4,5-g]quinoline monofumarate]: the melting point was 159 to 163 °C. The EC50 on human 5-HT2C receptor (setting [1]) turned out to be 0.64 nM. Besides, the Emax on human 5-HT2C receptor (CHO) was 99%. In turn, `CCN1CCCc2cc3c(c(Cl)c21)CCNCC3.Cl` [Example 16] returned a melting point of 221 to 223 °C. Also, the EC50 on human 5-HT2C receptor was 1.5 nM. Besides, on human 5-HT2C receptor (CHO), the Emax stood at 109%. As to `CC(C)C(=O)N1CCCc2cc3c(c(Cl)c21)CCNCC3.Cl` [Example 21], the melting point fell in the range of 245 to 249 °C. At human 5-HT2C receptor (setting [1]), the concentration for a half-maximal effect (EC50) was 0.81 nM. The Emax on human 5-HT2C receptor (CHO) amounted to 101%. On the same counts, the results for `CC(=O)N1CCCc2cc3c(cc21)CCNCC3.O=C(O)/C=C/C(=O)O` [Example 33] are 159 to 162 °C, 32.9 nM and 94%. Consider `CN1CCOc2cc3c(c(Br)c21)CCNCC3.O=C(O)/C=C/C(=O)O` [Example 35], for which the melting point was in the range of 200 to 204 °C. The EC50 on human 5-HT2C receptor was 0.42 nM. Moreover, on human 5-HT2C receptor (CHO), the Emax amounted to 100%. In turn, `c1c2c(c(C3CC3)c3c1OCCN3)CCNCC2` [Example 36] showed a melting point of 193 to 197 °C. The EC50 on human 5-HT2C receptor (setting [1]) was 12 nM. Moreover, the Emax at human 5-HT2C receptor (setting [2]) was 97%.

For `Clc1c2c(cc3c1N(CC1CCC1)CCC3)CCNCC2` [Example 42], the melting point fell in the range of 141 to 143 °C. For the same compound, the EC50 on human 5-HT2C receptor amounted to 1.9 nM. The Emax at human 5-HT2C receptor (CHO) was found to be 97%. On the same counts, the results for `Clc1c2c(cc3c1N(CC1CCCC1)CCC3)CCNCC2` [Example 45] are 151 to 153 °C, 3.9 nM and 107%.

In turn, `CC1CNc2cc3c(cc2O1)CCNCC3` (stereo not shown) [Example 50] returned a melting point of 193 to 194 °C. For the same compound, the EC50 at human 5-HT2C receptor is 68 nM. Also, the Emax at human 5-HT2C receptor (CHO) came to 98%. `c1c2c(cc3c1OCCN3CC1CC1)CCNCC2` [Example 56] displayed a melting point of 179 to 182 °C. For the same compound, on human 5-HT2C receptor (setting [1]), the EC50 worked out at 3.2 nM. Besides, the maximum response (Emax) on human 5-HT2C receptor (setting [2]) was found to be 112%. With `CC(C)CN1CCOc2cc3c(cc21)CCNCC3` [Example 58], the EC50 at human 5-HT2C receptor (setting [1]) was 4 nM. In addition, the Emax on human 5-HT2C receptor (setting [2]) was found to be 117%. `CC(C)OCCN1CCOc2cc3c(cc21)CCNCC3` [Example 76]: the EC50 at human 5-HT2C receptor (setting [1]) came to 1.9 nM. The Emax on human 5-HT2C receptor (CHO) came to 116%. In turn, `COCCN1CCOc2cc3c(c(-c4cccc(C)c4)c21)CCNCC3.O=C(O)/C=C/C(=O)O` [Example 78] registered a melting point of 173 to 176 °C. Further, the EC50 at human 5-HT2C receptor (setting [1]) is 36 nM. Moreover, on human 5-HT2C receptor (CHO), the Emax came to 98%.

In turn, `COCCN1CCOc2cc3c(c(C)c21)CCNCC3.O=C(O)/C=C/C(=O)O` [Example 90] showed a melting point of 166 to 170 °C. Also, the EC50 on human 5-HT2C receptor (setting [1]) came to 8.3 nM. Further, the Emax at human 5-HT2C receptor (CHO) worked out at 113%.

For the compound `O=C(O)/C=C/C(=O)O.c1ccc(N2CCOc3cc4c(cc32)CCNCC4)cc1` [Example 92], the melting point was in the range of 220 to 222 °C. Also, at human 5-HT2C receptor (setting [1]), the EC50 was found to be 79 nM. Besides, at human 5-HT2C receptor (CHO), the maximal effect (Emax) worked out at 84%. Regarding `CCc1c2c(cc3c1N(CCOC)CCO3)CCNCC2.O=C(O)/C=C/C(=O)O` [Example 98], the melting point was 159 to 163 °C. Also, the half-maximal effective concentration (EC50) on human 5-HT2C receptor (setting [1]) was 4.4 nM. In addition, the Emax at human 5-HT2C receptor (CHO) came to 107%. The compound `COCC1(CN2CCOc3cc4c(c(C5CC5)c32)CCNCC4)CC1` [Example 105] gave a melting point of 166 to 167 °C. Also, the EC50 at human 5-HT2C receptor (setting [1]) worked out at 8 nM. At human 5-HT2C receptor (CHO), the Emax was 111%.

In the case of `CCOC(=O)N1CCCc2cc3c(c(C)c21)CCNCC3.O=C(O)C(=O)O` [Example 108], the melting point lay in the range of 185 to 186 °C. Also, on human 5-HT2C receptor (setting [1]), the EC50 is 5.9 nM. Besides, the Emax on human 5-HT2C receptor (CHO) was 106%. `CC1(C)CCNc2cc3c(cc21)CCNCC3` [Example 159]: the melting point lay within 288 to 290 °C. `COCCN1CCOc2c1cc1c(c2Br)CCNCC1` [Example 176]: the melting point lay within 107 to 110 °C. On the same count and under the same terms, under `CCCc1c2c(cc3c1N(C)CCO3)CCNCC2` [Example 225] stands 151 to 152 °C. `CCc1c2c(cc3c1N(C)CCO3)CCNCC2` [Example 226] returned a melting point of 184 to 185 °C. Compound `c1c2c(c(C3CC3)c3c1OCCN3C[C@H]1CCCO1)CCNCC2` [Example 227] came in with a melting point of 156 to 158 °C. `COC(C)(C)CN1CCOc2cc3c(c(C4CC4)c21)CCNCC3` [Example 230] gave a melting point of 155 to 156 °C.

`COCC(C)(C)CN1CCOc2cc3c(c(C4CC4)c21)CCNCC3` [Example 231]: the melting point lay within 141 to 145 °C. In turn, `c1c2c(c(C3CC3)c3c1OCCN3CC1CCOCC1)CCNCC2` [Example 250] displayed a melting point of 153 to 155 °C. As to `CC(C)CN1CCOc2cc3c(c(C4CC4)c21)CCNCC3` [Example 262], the melting point lay within 160 to 162 °C. As to `CCc1c2c(cc3c1N(CCCF)CCO3)CCNCC2` [Example 264], the melting point is 153 to 154 °C.

With `COCC(C)CN1CCOc2cc3c(cc21)CCNCC3` (stereo not shown) [Example 318], the melting point lay within 129 to 132 °C.

Values taken from patent publication US9598434B2, “Benzazepine compound” (Astellas Pharma Inc., priority 2010, dated 2017).
